The nature of test [1]: cells. It is filed as functional, cell-based.
Test [2] can be described thus: cells. The format is functional, cell-based. This is another data set of the same source.
For test [3], the target named is T1, Trace amine-associated receptor 1 (Homo sapiens, UniProt Q96RJ0).
T1 sequence (Q96RJ0 whole entry): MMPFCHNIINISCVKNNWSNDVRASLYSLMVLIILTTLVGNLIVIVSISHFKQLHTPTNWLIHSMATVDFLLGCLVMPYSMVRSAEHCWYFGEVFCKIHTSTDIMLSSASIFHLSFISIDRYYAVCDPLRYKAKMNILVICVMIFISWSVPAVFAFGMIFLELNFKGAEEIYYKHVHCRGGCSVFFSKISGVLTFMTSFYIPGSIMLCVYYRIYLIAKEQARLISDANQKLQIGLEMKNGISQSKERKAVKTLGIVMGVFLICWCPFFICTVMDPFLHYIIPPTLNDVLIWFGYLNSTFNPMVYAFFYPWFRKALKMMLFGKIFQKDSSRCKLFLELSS
Description: Fluorescence-based cell-based high throughput dose response assay to identify agonists of the human trace amine associated receptor 1 (TAAR1). It is filed as functional.

In another test the target is Mu-type opioid receptor (Homo sapiens, UniProt P35372). It is filed as functional, cell-based.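 Also: U2OS cells with beta-arrestin recruitment to OPRM1 by beta-gal complementation.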
Mu-type opioid receptor, sequence (P35372 whole entry): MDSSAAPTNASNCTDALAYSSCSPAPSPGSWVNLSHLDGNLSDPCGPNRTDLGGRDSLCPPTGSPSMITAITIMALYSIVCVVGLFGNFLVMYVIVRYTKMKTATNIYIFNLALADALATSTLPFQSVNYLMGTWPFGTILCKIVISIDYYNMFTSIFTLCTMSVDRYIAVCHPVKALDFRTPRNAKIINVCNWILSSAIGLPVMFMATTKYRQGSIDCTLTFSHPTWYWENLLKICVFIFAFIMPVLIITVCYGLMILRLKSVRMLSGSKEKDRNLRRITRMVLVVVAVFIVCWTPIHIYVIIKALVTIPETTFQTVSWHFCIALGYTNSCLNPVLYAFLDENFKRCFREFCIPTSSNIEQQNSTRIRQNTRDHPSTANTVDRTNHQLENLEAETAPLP
The target of test [4] is T1, Trace amine-associated receptor 1. Description: Counterscreen for agonists of the human trace amine associated receptor 1 (hTAAR1): Fluorescence-based cell-based high throughput dose response assay to identify hTAAR1 agonist that also desensitize TAAR1 receptor response. The format is functional. On the technique in general: The purpose of a counterscreen is to sort out artefacts and off-target activity.

Test [5] has as its target Voltage-gated inwardly rectifying potassium channel KCNH2 (Homo sapiens, UniProt Q12809). Particulars: Potency.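 Also: confirmatory quantitative high-throughput screen measuring inhibition of hERG channel activity.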
The target in test [6] is 5-hydroxytryptamine receptor 2A (Mus musculus, UniProt P35363). The format is functional, cell-based.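 Also: CHO-K1 cells with tagged receptor and beta-arrestin; agonist potency measured as compound-induced activation of the receptor.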
5-hydroxytryptamine receptor 2A, sequence (P35363 whole entry): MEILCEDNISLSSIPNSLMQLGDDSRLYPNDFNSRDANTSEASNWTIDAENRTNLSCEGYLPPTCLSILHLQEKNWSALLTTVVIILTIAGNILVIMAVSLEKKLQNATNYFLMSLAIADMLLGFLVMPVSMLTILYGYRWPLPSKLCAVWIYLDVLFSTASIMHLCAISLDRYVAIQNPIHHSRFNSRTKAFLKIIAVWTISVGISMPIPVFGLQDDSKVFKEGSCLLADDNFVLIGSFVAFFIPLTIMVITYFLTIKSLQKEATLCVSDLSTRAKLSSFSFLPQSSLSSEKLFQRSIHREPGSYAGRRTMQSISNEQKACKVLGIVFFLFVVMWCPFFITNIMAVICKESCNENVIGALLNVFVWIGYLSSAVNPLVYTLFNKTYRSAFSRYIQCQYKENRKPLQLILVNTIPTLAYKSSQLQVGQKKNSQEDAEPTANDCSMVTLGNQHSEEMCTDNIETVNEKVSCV
The target in test [7] is T2, High affinity choline transporter 1 (Homo sapiens, UniProt Q9GZV3).
T2 sequence (Q9GZV3 whole entry): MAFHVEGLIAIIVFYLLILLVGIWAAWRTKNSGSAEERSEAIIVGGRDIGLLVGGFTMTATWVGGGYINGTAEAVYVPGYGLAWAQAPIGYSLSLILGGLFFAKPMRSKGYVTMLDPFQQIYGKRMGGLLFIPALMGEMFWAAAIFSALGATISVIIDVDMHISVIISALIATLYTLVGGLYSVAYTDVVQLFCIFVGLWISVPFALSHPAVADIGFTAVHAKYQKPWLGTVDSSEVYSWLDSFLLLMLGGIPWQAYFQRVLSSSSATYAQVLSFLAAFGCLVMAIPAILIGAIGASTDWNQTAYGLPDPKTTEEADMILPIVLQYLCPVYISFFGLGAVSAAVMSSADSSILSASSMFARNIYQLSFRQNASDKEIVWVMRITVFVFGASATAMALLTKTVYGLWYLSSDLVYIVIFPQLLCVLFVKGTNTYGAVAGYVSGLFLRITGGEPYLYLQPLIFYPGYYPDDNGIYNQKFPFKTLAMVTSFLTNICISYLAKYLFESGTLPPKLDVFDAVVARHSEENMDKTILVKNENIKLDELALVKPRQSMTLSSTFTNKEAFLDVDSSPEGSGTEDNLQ
As to the kind of experiment: CHT inhibitors, dose response, cell-based, 10-point CRC, membrane potential dye (AID 588401).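 Also: membrane potential dye fluorescence of choline-evoked depolarization via CHT.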 The format is functional.

Test [8] concerns the target T2, High affinity choline transporter 1. As to the kind of experiment: CHT inhibitors, dose response, cell-based, 5-point CRC, membrane potential dye (AID 504840). It is filed as functional.
Test [9] can be described thus: nonselective inhibitors of cellular cAMP signaling, dose response, counter-screen for MC4R biased antagonist project, cell-based, TR-FRET cAMP detection (AID 602305).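 Also: U2OS cells stimulated with forskolin near its EC80 as the cAMP inducer; potency is for inhibition of forskolin-stimulated cAMP signaling.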 The format is functional.
For a further test, the target named is Melanocortin receptor 4 (Homo sapiens, UniProt P32245). Description: MC4R antagonist potency on cAMP, dose response, cell-based, TR-FRET, biased antagonists (AID 602298).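 Also: antagonist potency against agonist-stimulated cAMP production.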 It is filed as functional.
Melanocortin receptor 4, sequence (P32245 whole entry): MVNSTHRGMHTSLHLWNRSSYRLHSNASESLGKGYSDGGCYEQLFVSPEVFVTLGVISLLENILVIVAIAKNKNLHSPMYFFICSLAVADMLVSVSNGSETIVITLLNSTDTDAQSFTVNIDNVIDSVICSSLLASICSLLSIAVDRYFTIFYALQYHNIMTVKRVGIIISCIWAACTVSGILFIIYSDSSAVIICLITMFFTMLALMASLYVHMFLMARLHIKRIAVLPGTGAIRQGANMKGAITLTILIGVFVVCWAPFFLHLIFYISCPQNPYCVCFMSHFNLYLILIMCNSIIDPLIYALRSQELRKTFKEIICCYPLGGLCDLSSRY
Test [10] concerns HEK293. Description: NOD2 signaling inhibitors in MDP-stimulated cells, cell-based, uHTS, luminescence (AID 2001). It is filed as functional. Particulars: Homo sapiens.
Test [11] is described as follows: HepG2 cell cytotoxicity, dose response, cytotoxicity control for Shn3 inhibitor project, CellTiter-Glo, cherry-picked (AID 624134). The format is functional, cell-based. On the technique in general: ATP-based viability assays read luminescence as a measure of living cells.
Another test relates to INS1. Description: beta cell apoptosis inhibitors, cytokine rescue, dose response, luminescence, retest (AID 449756).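 Also: cell death triggered by IL-1 beta plus TNF-alpha plus IFN-gamma mixture; protective hits raise ATP signal compared with cytokine alone wells.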 Conditions: Rattus norvegicus. It is filed as functional, cell-based.
Test [12] concerns HEK293. As to the kind of experiment: NOD1 signaling inhibitors, primary screen, cell-based, luminescence, uHTS (AID 1578). Particulars: Homo sapiens. It is filed as functional.
The next test addresses Beta Lactamase (Pseudomonas aeruginosa, UniProt Q932Y6). Description: beta-lactamase reporter inhibitor potency, dose response, artefact control for TLR9-MyD88 binding inhibitor project, BLA reporter cells, FRET fluorescence (AID 588341).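 Also: cell based assay in CHO-K1 cells stably expressing beta-lactamase.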 It is filed as cell-based.
In test [13] the target is T3, Fatty acid synthase (Homo sapiens, UniProt P49327). As to the kind of experiment: FAS thioesterase domain inhibitors, dose response, biochemical, kinetic fluorescence intensity (AID 624326).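 Also: rate of fluorescence rise from hydrolysis of a fluorogenic O-methyl fluorescein ester substrate.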 It is filed as functional.
T3 sequence (P49327 whole entry, the tested form may be a part): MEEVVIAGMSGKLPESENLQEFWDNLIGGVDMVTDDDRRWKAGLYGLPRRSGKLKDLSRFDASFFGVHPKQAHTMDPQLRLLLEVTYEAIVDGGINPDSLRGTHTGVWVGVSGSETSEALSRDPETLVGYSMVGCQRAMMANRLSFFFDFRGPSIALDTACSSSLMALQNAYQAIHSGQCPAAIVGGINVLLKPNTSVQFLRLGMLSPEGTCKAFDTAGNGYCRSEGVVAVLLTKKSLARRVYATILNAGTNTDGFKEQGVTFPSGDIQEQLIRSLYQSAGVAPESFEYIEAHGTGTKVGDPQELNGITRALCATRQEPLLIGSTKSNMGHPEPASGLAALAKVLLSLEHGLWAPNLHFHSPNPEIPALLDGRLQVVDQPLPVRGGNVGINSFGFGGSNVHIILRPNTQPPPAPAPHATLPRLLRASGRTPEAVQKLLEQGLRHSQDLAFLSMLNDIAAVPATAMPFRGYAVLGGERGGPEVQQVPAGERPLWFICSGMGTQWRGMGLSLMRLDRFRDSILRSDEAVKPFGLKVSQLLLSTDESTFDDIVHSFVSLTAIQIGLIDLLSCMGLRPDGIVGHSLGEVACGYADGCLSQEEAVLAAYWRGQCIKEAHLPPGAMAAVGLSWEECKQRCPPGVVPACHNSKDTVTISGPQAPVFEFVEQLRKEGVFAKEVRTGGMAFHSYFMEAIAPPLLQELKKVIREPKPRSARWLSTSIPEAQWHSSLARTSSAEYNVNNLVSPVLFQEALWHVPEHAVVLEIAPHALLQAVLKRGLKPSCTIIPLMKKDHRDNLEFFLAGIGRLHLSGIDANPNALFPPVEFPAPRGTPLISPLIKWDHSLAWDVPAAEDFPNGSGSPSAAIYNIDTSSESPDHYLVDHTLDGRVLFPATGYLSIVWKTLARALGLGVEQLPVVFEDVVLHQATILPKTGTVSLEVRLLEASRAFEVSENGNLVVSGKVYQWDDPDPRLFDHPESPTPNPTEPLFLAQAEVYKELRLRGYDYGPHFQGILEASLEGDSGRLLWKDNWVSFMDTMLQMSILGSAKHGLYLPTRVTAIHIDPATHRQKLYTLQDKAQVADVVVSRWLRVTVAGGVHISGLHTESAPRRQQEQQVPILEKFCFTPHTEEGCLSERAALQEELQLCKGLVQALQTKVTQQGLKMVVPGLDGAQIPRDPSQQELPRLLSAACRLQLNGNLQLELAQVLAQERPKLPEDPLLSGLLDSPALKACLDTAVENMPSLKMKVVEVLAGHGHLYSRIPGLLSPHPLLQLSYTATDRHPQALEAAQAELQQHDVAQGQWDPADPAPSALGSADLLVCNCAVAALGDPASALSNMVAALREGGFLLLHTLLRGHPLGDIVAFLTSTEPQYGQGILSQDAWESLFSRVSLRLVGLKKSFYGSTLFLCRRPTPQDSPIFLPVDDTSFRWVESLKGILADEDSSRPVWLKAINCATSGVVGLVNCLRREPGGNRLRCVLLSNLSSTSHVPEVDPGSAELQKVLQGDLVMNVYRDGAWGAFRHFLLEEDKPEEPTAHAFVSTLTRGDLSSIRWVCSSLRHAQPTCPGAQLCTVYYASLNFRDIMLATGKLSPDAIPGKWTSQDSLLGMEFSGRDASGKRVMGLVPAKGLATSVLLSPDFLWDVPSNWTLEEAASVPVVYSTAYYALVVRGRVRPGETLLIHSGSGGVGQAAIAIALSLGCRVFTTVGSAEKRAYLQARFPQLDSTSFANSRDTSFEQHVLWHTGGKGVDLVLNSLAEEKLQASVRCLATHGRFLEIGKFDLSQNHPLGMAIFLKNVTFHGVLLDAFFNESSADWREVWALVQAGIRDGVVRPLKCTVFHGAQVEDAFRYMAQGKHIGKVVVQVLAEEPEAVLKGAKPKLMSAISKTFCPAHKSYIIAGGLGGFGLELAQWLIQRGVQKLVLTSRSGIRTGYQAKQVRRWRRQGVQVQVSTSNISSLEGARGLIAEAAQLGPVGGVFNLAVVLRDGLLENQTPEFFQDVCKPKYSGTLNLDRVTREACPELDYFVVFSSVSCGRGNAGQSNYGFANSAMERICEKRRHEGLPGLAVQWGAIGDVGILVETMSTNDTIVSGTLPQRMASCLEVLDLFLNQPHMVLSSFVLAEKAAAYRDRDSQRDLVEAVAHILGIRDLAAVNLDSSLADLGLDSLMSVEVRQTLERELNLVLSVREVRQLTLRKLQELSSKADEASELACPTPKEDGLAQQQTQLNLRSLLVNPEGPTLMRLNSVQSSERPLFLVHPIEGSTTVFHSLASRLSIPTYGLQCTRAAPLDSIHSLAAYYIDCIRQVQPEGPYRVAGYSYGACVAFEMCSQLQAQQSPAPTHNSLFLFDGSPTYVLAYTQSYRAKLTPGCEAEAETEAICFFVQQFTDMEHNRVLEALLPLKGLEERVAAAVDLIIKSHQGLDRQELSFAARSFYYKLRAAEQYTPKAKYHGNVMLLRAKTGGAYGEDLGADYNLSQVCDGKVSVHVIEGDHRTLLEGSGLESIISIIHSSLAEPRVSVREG
Test [14] in a line: control 3'UTR Renilla luciferase suppression, dose response, counter-screen for Shn3 inhibitor project, cell-based, Clone20-Shn3RL, cherry-picked (AID 624133). It is filed as functional.
The target of test [15] is T3, Fatty acid synthase. As to the kind of experiment: FAS thioesterase domain inhibitors, dose response, biochemical, endpoint fluorescence intensity, uHTS hits (AID 624327).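 Also: fluorescence from hydrolysis of an O-methyl fluorescein acyl ester substrate by the enzyme.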 It is filed as functional.
In test [16] the test system is HEK293. Description: cells. Conditions: Homo sapiens. The format is functional, cell-based.
The nature of test [17]: Shn3 3'UTR reporter inhibitors, dose response, cell-based, Clone20 osteoblasts, firefly luciferase, cherry-picked (AID 624132).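 Also: firefly luciferase luminescence from reporter carrying the Shn3 3'UTR in osteoblasts.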 The format is functional.
Test [18] has as its target Nucleotide-binding oligomerization domain-containing protein 2 (Homo sapiens, UniProt Q9HC29). Description: NOD2 signaling inhibitors, cell-based, luminescence, uHTS, HEK293 (AID 1566). It is filed as functional.
For the next test, the system named is CHO. Description: cytotoxicity in TLR9-MyD88 CHO cells, dose response, cytotoxicity control for TLR9-MyD88 binding inhibitor project, cell-based, luminescence (AID 588339).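 Also: CHO cells stably coexpressing TLR9 and MyD88 fusions from primary screen; compound exposure lasted 48 hours before viability readout.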 The format is functional, hamster. Particulars: Cricetulus griseus.
Test [19] deals with HEK293. As to the kind of experiment: cells. It is filed as functional, cell-based. Particulars: Homo sapiens. This is another data set of the same source.
For test [20], the target named is T2, High affinity choline transporter 1. Description: inhibitors of CHT choline uptake, dose response, cell-based, 3H-choline uptake, CHT LV-AA trafficking mutant, CRC (AID 602208). It is filed as functional.
A short description of test [21]: ARNT/TACC3 interaction disruptors, potency, confirmation, biochemical, AlphaScreen, cherry-picked samples (AID 651703).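 Also: His-tagged ARNT PAS-B domain paired with GST-TACC3 E629A dimer coactivator fragment; potency of inhibitors that break up the complex and lower AlphaScreen signal.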 The format is functional, Homo sapiens. On the technique in general: In Alpha technology, singlet oxygen from a donor bead excites a nearby acceptor bead.
For a further test, the target named is T4, Interleukin-8 (Homo sapiens, UniProt P10145).
T4 sequence (P10145 whole entry): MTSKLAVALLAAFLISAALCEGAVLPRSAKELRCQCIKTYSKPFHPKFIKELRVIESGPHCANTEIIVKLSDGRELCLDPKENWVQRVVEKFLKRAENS
Description: Dose Response confirmation of uHTS small molecule hits for cystic fibrosis induced NFkb Inhibitors in a PAF-induced IL8 counterscreen. The format is functional. Conditions: read-out: IC50_Mean.

Test [22] deals with T5, Neuropeptides B/W receptor type 1 (Homo sapiens, UniProt P48145).
T5 sequence (P48145 whole entry): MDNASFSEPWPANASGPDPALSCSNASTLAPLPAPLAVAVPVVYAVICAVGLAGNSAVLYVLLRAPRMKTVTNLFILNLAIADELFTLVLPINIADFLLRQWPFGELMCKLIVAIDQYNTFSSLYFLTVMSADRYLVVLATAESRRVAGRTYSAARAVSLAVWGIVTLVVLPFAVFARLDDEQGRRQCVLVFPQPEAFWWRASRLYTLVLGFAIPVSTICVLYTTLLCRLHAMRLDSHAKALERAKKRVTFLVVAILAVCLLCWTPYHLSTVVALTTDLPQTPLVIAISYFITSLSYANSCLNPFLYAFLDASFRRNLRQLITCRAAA
Description: GPR7 antagonist potency, late-stage follow-up, cell-based, fluorescence, dose response, set 5 (AID 588566). The format is functional.

In test [23] the target is Melanin-concentrating hormone receptor 1 (Homo sapiens, UniProt Q99705). Description: Late-stage fluorescence-based counterscreen for antagonists of the G-protein coupled receptor 7 (GPR7): cell-based dose response assay to identify antagonists of the melanin-concentrating hormone receptor 1 (MCHR1) Set 5. The format is functional.
Melanin-concentrating hormone receptor 1, sequence (Q99705 whole entry): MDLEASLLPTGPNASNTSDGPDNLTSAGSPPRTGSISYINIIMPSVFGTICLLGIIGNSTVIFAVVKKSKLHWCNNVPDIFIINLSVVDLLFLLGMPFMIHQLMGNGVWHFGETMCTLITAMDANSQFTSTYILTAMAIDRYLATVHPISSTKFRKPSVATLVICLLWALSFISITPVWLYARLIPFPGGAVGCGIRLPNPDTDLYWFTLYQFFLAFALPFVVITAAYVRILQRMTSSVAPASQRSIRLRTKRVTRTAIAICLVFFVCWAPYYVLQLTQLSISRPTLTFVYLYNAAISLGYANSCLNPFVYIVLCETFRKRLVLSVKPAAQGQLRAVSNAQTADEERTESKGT
Test [24] can be described thus: Vero cell cytotoxicity, cytotoxicity control for M. tuberculosis inhibitor project, purified and synthesized samples, set 3 (AID 504684). The format is functional. Particulars: […].
Test [25] can be described thus: THP-1 cell cytotoxicity, cytotoxicity control, set 4 (AID 504911). Particulars: Mycobacterium tuberculosis. It is filed as functional.

This note sets out measurements from ChEMBL document CHEMBL1201862, “PubChem BioAssay data set” (2004).

Activity calls are given as the source filed them. A value given as a limit tells only on which side of the number the result lay.

Beta Lactamase, sequence (Q932Y6 whole entry, the tested form may be a part): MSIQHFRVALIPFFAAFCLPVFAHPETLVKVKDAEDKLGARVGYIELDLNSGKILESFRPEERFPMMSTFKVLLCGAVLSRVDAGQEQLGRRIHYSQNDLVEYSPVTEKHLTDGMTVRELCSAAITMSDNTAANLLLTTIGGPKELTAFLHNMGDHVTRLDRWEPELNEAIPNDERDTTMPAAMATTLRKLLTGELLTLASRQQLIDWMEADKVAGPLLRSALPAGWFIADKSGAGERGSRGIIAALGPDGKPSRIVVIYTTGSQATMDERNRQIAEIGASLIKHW

In general, EC50 refers to the concentration needed to bring the measured effect to its halfway point. A word on the AC50: it is the concentration at which the activity in the assay is half-maximal. Consider `Oc1ccc(C2CNCc3sccc32)cc1O` (configuration not stated), for which the IC50 was > 29.9 µM (inactive) in the test “cells [1]” and 4.33 µM (active) in test [4]. Besides, the EC50 in “cells [2]” is > 29.9 µM (inactive); in [3], 0.752 µM (active); at Mu-type opioid receptor it was 92.5 µM (inactive); in [6] it was 0.452 µM (active). Moreover, in test [5], the AC50 is 11.2 µM (inconclusive).
As to `O=[N+]([O-])c1cc(C(F)(F)F)cc([N+](=O)[O-])c1N1CCCNCC1`, the IC50 was 4.01 µM (active) in test [7] and 10.2 µM (active) in test [8].
As to `CC(C)(C)OC(=O)NCc1ccc(NC(=O)c2[nH]cnc2C(=O)N[C@@H](Cc2ccccc2)C(=O)OCc2ccccc2)cc1`, the IC50 in test [9] is > 64.6 µM (inactive).
As for `CC(C)(C)OC(=O)NCc1ccc(NC(=O)c2nc[nH]c2C(=O)N[C@@H](Cc2ccccc2)C(=O)OCc2ccccc2)cc1`, the IC50 at Melanocortin receptor 4 is > 64.6 µM (inactive).
On to `CCN(c1ccccc1)S(=O)(=O)c1ccc(NC(=O)c2nc(S(C)(=O)=O)ncc2Cl)cc1`, for which the IC50 is 8.24 µM (inactive) in the test on HEK293 [10]; 7.96 µM (active) on Beta Lactamase; 3.48 µM (active) on Fatty acid synthase [13]; 6.22 µM (active) at Fatty acid synthase [15]; > 20 µM (inactive) with HEK293 [16]; 2.53 µM (active) in the test on CHO. Further, the IC50 with HEK293 [19] was > 20 µM (inactive). The AC50 in [11] was 15.2 µM (active); in the test with INS1 it was 5.28 µM (active); in test [14], 4.56 µM (active); in test [17], 0.562 µM (active). Moreover, the EC50 (with HEK293 [12]; in test [18]) was > 20 µM (inactive) throughout.
Regarding `O=C1OCCC1Sc1nc2ccccc2n1Cc1ccccc1` (configuration not stated), the IC50 was > 64.6 µM (inactive) in test [9] and 10.9 µM (inactive) at Melanocortin receptor 4.
Consider `COc1ccc(C(=O)NCCC2=CCCCC2)cc1OC1CCN(C(C)C)CC1`, for which the IC50 in test [20] is 16 µM (active); in test [7] it was 3.16 µM (active); in test [8] it was 2.63 µM (active).
For the compound `C#CCOCCOCCOCCNc1nc(N2CCN(C(=O)[C@H](CCCCN)n3cc([C@@H](N)CO)nn3)CC2)nc(N2CCN(C(=O)[C@H](Cc3ccc(O)cc3)n3cc([C@@H](N)CC(C)C)nn3)CC2)n1`, the AC50 in [21] was 121 µM (active).
With `Nc1nccc(-c2ccc(-n3cnc4ccccc43)cc2)n1`, at Interleukin-8, the IC50 is 10.2 µM (inactive).
For `CCOC(=O)Cc1c(Cl)cnn(Cc2cccc3ccccc23)c1=O`, the IC50 in [22] was 10.3 µM (inactive); in test [23], 10.9 µM (inactive).
For `N#CC(c1cccnc1)c1c(Cl)cnn(Cc2cccc3ccccc23)c1=O` (configuration not stated), in that order: 0.975 µM (active) and 4.56 µM (active).
What is called CC50 is the concentration at which the toxic effect on the cells reaches its halfway point. In the case of `Cc1[nH]c(SCc2ccccc2Cl)nc(=O)c1C`, the CC50 in [24] and in test [25] was > 100 µM (active) each time.
